The values that follow come from ChEMBL document CHEMBL1201862, “PubChem BioAssay data set” (2004).

Molecules are shown by their SMILES. The source made the active and inactive calls.

For orientation: AC50 means the concentration at which the activity in the assay is half-maximal. For orientation: IC50 means the concentration needed to halve the response being measured.

Assay [1] concerns the target T1, Replicative DNA helicase DnaB (Mycobacterium tuberculosis, UniProt P9WMR3).
T1 sequence (P9WMR3 whole entry): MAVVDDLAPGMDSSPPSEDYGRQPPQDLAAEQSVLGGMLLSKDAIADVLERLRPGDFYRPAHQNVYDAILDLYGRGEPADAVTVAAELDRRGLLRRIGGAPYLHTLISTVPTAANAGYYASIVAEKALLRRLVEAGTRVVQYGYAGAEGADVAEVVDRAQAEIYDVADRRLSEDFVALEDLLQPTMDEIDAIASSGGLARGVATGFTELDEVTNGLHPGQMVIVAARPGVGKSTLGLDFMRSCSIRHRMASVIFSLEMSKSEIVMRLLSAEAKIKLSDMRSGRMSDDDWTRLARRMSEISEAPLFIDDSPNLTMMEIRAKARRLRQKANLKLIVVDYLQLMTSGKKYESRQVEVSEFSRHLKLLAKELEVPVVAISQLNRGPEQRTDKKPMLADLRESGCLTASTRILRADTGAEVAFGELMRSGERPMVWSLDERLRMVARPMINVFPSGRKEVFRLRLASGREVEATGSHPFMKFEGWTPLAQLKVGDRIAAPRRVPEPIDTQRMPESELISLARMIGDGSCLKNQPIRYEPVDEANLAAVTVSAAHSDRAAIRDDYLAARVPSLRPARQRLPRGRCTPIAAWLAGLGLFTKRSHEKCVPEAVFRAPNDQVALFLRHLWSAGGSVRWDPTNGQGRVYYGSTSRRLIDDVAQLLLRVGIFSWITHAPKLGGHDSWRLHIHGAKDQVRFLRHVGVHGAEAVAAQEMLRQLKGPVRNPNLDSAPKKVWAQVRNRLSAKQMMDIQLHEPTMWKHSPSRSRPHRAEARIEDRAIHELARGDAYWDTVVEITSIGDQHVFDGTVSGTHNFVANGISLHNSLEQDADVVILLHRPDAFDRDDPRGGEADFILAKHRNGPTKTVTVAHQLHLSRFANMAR
In words: DnaB intein splicing inhibitors, dose response, biochemical, cell-free fluorescence (AID 449749). The class given is functional.

The target in the next assay is T2, Protein RecA (Mycobacterium tuberculosis, UniProt P9WHJ3).
T2 sequence (P9WHJ3 whole entry): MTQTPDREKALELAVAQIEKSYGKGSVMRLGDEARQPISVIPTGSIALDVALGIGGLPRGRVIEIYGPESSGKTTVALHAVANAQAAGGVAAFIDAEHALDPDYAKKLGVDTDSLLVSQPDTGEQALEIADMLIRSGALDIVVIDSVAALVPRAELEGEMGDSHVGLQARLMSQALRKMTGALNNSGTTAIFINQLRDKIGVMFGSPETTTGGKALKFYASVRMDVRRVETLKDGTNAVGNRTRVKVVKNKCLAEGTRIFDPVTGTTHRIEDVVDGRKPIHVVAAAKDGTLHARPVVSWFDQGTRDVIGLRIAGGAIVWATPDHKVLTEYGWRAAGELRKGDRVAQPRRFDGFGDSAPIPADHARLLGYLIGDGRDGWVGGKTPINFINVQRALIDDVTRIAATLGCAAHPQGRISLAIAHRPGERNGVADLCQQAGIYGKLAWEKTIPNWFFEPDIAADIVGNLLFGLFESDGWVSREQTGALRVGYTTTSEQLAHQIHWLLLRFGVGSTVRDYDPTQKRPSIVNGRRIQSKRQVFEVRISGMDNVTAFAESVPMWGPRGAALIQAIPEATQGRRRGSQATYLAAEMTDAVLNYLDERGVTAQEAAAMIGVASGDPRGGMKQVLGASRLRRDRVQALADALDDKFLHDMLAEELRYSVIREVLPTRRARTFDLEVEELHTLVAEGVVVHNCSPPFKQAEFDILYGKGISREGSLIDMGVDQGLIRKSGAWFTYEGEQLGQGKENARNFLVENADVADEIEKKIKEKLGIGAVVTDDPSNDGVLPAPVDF
In words: Fluorescence Cell-Free Homogeneous Dose Retest to Identify Inhibitors of RecA-Intein Splicing Activity. [Related pubchem assays (depositor defined):AID2097, AID2223, AID489010, AID492950]. The class given is functional.

The next assay has as its target T3, Cytochrome P450 1A2 (Homo sapiens, UniProt P05177).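 Further: PubChem cytochrome P450 panel assay, CYP1A2 panel member.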
T3 sequence (P05177 whole entry): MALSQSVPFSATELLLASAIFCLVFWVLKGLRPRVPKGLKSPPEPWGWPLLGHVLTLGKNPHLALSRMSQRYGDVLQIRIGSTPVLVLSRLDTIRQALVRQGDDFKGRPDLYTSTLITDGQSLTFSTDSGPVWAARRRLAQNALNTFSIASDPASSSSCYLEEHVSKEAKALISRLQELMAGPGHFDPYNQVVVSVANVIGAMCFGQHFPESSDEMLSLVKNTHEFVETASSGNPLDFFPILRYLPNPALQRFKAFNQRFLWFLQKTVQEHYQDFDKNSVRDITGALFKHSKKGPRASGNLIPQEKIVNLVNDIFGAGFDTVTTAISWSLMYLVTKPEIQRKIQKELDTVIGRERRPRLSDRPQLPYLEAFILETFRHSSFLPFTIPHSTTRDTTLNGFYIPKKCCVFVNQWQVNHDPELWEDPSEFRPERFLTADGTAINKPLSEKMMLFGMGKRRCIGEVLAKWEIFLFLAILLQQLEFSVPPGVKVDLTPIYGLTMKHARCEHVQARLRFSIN

The target of the next assay is T4, Protein skinhead-1 (Caenorhabditis elegans, UniProt P34707).
T4 sequence (P34707 whole entry): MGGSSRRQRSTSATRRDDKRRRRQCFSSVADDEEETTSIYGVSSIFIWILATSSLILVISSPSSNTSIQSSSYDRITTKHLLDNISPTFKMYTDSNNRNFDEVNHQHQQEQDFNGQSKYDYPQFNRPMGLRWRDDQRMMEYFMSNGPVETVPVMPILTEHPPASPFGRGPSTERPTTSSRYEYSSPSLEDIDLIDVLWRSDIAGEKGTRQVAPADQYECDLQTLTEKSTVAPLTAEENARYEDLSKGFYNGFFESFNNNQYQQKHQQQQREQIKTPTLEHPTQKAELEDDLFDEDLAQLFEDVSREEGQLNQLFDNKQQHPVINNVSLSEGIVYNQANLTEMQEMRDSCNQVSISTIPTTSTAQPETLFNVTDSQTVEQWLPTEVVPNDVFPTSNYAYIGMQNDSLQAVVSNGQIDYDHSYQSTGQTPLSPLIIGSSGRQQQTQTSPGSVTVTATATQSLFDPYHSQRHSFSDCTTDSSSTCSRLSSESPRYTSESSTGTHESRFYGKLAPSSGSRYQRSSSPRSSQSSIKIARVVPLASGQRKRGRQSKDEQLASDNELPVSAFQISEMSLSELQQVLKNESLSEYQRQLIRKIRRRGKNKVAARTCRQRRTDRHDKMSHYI
It is filed as functional.

Assay [2] deals with T5, Corticotropin-releasing factor receptor 2/Corticotropin-releasing factor-binding protein (Homo sapiens, UniProt P24387+Q13324).
T5 sequence (Q13324 whole entry): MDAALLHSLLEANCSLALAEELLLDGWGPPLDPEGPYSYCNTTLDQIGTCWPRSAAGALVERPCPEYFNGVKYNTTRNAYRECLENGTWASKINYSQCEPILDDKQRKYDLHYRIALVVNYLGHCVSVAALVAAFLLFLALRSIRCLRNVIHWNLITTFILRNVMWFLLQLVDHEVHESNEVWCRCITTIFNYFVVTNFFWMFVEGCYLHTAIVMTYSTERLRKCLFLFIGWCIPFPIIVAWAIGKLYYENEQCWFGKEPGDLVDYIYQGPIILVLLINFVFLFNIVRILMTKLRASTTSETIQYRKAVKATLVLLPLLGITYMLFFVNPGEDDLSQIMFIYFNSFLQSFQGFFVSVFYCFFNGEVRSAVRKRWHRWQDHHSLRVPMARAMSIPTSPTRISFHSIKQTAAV
T5 sequence (P24387 whole entry): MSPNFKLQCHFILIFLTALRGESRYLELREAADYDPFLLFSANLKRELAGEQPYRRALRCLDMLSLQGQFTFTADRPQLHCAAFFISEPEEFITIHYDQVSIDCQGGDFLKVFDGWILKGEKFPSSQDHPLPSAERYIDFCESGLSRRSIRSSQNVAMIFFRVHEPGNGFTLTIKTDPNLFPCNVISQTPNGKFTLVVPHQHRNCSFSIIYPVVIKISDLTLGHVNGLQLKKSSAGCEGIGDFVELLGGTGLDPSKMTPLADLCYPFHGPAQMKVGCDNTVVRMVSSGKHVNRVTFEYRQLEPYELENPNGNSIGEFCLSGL
In words: activators of CRF receptor 2 with binding protein – uHTS hits, confirmation (AID 602473). It is filed as functional. Particulars: read-out: EC50_Mean.

The target in the next assay is Cytochrome P450 2D6 (Homo sapiens, UniProt P10635).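 Further: CYP2D6 member of a cytochrome P450 panel assay.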
The target in the next assay is Cytochrome P450 2C9 (Homo sapiens, UniProt P11712).
Chain of Cytochrome P450 2C9 (P11712 whole entry): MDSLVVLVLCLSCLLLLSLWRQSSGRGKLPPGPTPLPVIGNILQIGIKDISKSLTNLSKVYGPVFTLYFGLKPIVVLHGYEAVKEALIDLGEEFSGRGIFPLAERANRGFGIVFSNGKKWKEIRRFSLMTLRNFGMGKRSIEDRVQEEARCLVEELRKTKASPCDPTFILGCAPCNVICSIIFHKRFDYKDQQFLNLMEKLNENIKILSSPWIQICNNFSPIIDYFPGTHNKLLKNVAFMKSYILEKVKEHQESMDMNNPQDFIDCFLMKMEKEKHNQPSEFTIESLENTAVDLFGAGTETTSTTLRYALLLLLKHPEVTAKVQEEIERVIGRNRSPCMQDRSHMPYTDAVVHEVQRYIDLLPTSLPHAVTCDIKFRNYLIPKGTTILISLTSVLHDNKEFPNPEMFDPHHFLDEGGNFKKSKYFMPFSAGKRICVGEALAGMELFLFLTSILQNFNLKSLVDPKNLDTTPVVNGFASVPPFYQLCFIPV

Chain of Cytochrome P450 2D6 (P10635 whole entry): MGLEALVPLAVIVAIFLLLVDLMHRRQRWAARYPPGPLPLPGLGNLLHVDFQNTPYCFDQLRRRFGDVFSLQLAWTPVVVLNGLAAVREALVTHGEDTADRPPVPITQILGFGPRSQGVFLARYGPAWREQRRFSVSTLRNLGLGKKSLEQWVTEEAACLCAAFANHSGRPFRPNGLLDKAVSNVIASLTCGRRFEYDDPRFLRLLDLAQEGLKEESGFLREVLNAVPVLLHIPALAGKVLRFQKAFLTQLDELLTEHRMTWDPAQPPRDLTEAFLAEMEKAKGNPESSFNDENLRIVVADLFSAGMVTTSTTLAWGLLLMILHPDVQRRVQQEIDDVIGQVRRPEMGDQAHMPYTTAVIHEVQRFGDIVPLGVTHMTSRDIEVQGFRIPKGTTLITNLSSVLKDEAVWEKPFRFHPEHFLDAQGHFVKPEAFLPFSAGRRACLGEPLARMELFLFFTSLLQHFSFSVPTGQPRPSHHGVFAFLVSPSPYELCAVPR

Regarding `ClCc1nnc(-c2cc3c(s2)CCCC3)o1`, the AC50 in assay [1] is 10.7 µM (active). For the same molecule, the EC50 on Protein RecA is 3.55 µM (active). For `NCCCCCCCCCCNS(=O)(=O)c1cccc2c(Cl)cccc12`, the AC50 at Cytochrome P450 1A2 is 15.8 µM (inconclusive). Turning to `Cc1n[nH]c2c1C1(CCN(C(=O)c3ccccc3)CC1)C(C#N)=C(N)O2`, the AC50 in assay [1] was 7.89 µM (active). Also, the EC50 on Protein RecA was 1.3 µM (active). For the molecule `Oc1cc(-c2ccccc2)n[nH]1`, the AC50 in assay [1] is 1.43 µM (active). For the same molecule, on Protein RecA, the EC50 was 0.517 µM (active). `CCOc1cc(NC(=O)c2ccco2)c(OCC)cc1NC(=O)CCc1ccccc1OC`: the IC50 on Protein skinhead-1 is > 100 µM (inactive). With `Cc1noc(C)c1-c1ccc2ncnc(N3CCC(C(=O)O)CC3)c2c1`, the AC50 on Cytochrome P450 1A2 was 25.1 µM (inconclusive). Take `Nc1nc(-c2ccc(-c3ccccc3)cc2)cs1`: at Protein skinhead-1, the IC50 was > 100 µM (inactive). On to `COc1cc(/C=C2/C(=O)N(c3ccc(Br)cc3)N=C2C)cc(OC)c1OC`, for which, in assay [1], the AC50 is 4.08 µM (active). Also, on Protein RecA, the EC50 is 12.4 µM (active). With `Nc1nc(-c2ccc(Oc3ccccc3)cc2)cs1`, the IC50 on Protein skinhead-1 was 98.1 µM (inactive). Regarding `Cn1nc(C(=O)N2CCN(S(=O)(=O)c3ccccc3)CC2)c2ccccc2c1=O`, the IC50 on Protein skinhead-1 is > 100 µM (inactive).

For the molecule `CCCCN(C(=O)c1cccc2c(=O)c(C)c(-c3ccccc3)oc12)c1ccccc1`, the AC50 in assay [1] was 4.15 µM (active). Moreover, the EC50 at Protein RecA was 15.2 µM (active). Turning to `CCCc1n[nH]c2c1C(c1ccc(OC)cc1OC)C(C#N)=C(N)O2` (configuration not stated), the AC50 in assay [1] was 6.28 µM (active). The EC50 on Protein RecA was 4.07 µM (active).

Consider `Cc1cc2ccccc2n1CCNC(=O)c1ccc(S(=O)(=O)N2CCOCC2)cc1`, for which the IC50 on Protein skinhead-1 is > 100 µM (inactive). Regarding `COc1ccc(-c2ccc(C3C(C#N)=C(N)Oc4[nH]nc(C)c43)o2)cc1` (configuration not stated), the EC50 in assay [2] was 10.1 µM (active). `COc1ccccc1C(=O)Nc1ccc(Br)cc1C`: the IC50 at Protein skinhead-1 is > 100 µM (inactive). `CCCC(C(=O)NCC1CCCO1)N(Cc1ccccc1)C(=O)CNS(=O)(=O)c1ccccc1` (configuration not stated): the IC50 on Protein skinhead-1 is > 100 µM (inactive). As to `O=[N+]([O-])c1ccc2cn(-c3ccccc3)nc2c1`, the IC50 at Protein skinhead-1 was 54.4 µM (inactive).

For the molecule `CCOC(=O)c1ccc(CC2S/C(=C(\C#N)C(C)=O)NC2=O)cc1` (configuration not stated), the AC50 in assay [1] was > 380 µM (inactive). The EC50 on Protein RecA is > 380 µM (inactive). Take `COc1ccc(C2C(C#N)=C(N)Oc3[nH]nc(C)c32)cc1CN1CCN(c2ccc(F)cc2)CC1` (configuration not stated): the concentration at half-maximal activity (AC50) in assay [1] was 10.3 µM (active); on Cytochrome P450 2D6, 25.1 µM (inconclusive); on Cytochrome P450 2C9 it was 35.5 µM (inconclusive). At Protein RecA, the EC50 is 6.55 µM (active). `O=C(C=Cc1ccccc1)c1cc(Br)ccc1O`: the IC50 at Protein skinhead-1 was > 100 µM (inactive). Turning to `O=C=Nc1ccc(Cc2ccc(N=C=O)cc2)cc1.O=c1oc(=O)c2cc3c(=O)oc(=O)c3cc12`, the half-maximal activity concentration (AC50) on Cytochrome P450 1A2 is 5.01 µM (inconclusive).

Take `CC1(c2ccc(Cl)cc2)NC(=O)N(CN2CCOCC2)C1=O` (configuration not stated): the IC50 on Protein skinhead-1 is > 100 µM (inactive).

As for `Cc1cc(N2CCOCC2)nc(N)n1`, in assay [2], the EC50 is 10.4 µM (active). As for `N#C/C(=C/c1ccc(-c2ccc([N+](=O)[O-])cc2)o1)c1nnc(N2CCOCC2)n1-c1ccccc1`, in assay [2], the EC50 is 11 µM (active).

As to `CCN(CC(=O)Nc1ccccc1C(F)(F)F)C(=O)C1CC(=O)N(Cc2ccccc2)C1` (configuration not stated), the IC50 at Protein skinhead-1 is > 100 µM (inactive). Consider `CCOC(=O)c1c(/N=C/C2C(=O)NC(=S)NC2=O)sc2c1CCC2`, for which the EC50 in assay [2] was > 53 µM (inactive). For `Cc1ccccc1CNC(=O)c1ccc2sc([C@H]3C[C@H](O)[C@@H](CO)O3)nc2c1`, the IC50 on Protein skinhead-1 is > 100 µM (inactive).

On to `COc1ccccc1N1CCN(CCCCN2C(=O)CCC2=O)CC1`, for which the half-maximal activity concentration (AC50) on Cytochrome P450 1A2 was 39.8 µM (inconclusive). On to `CCOC(=O)/C=c1\s/c(=C(\C#N)C(N)=O)n(-c2ccccc2)c1=O`, for which, in assay [1], the AC50 was 9.68 µM (active). The EC50 at Protein RecA is > 380 µM (inconclusive). As for `Oc1ccc(Nc2nc(-c3ccc(O)cc3)cs2)cc1`, in assay [1], the half-maximal activity concentration (AC50) is 111 µM (active). The EC50 on Protein RecA is 43.8 µM (active).
